These results are taken from EP2949653A1, “ISOXAZOLE DERIVATIVES AS LEUKOTRIENE BIOSYNTHESIS INHIBITORS” (Banoglu, Erden, priority 2014, dated 2015).

pIC50: −log10 of the molar value. “And” between values parts separate entries of the source, which are not always exact repeats. Identical values can stand only once. Like-named read-outs stand apart in the source and are kept apart here.

Data set [1] concerns the target T1, purified 5-LO (Homo sapiens, UniProt P09917).
T1 sequence (P09917 1-674): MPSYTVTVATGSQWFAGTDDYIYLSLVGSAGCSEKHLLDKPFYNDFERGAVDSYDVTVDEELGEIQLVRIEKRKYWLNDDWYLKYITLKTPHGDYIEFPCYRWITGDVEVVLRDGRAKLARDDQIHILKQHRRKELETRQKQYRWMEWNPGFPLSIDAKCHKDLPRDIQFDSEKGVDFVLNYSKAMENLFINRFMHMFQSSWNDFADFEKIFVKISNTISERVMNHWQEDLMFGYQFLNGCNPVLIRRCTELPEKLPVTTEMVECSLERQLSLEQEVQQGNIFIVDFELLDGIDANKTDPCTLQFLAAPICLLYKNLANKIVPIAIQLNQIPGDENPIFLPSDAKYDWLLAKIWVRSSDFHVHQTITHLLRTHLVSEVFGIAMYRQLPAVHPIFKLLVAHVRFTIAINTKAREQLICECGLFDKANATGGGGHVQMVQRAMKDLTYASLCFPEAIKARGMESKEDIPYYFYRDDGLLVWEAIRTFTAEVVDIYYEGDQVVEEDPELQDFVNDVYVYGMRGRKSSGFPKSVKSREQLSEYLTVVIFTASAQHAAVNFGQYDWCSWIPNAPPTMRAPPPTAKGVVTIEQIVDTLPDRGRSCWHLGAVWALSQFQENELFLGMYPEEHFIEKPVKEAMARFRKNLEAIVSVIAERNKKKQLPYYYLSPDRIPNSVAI
Put plainly: Purified / human recombinant 5-LO activity (cell-free). It is filed as biochemical. Here is the method:
(§1) Cell based and cell-free assays carried out in biological studies, immunofluorescence microscopy analysis and zymosan-induced peritonitis in mice are performed as described hereinabove (Pegola, C. and et al., British J. Pharmacology, 2014, D01:10.1111/bph.12625). In the cell based assays (intact neutrophils or monocytes), 5-LO mediated product formation is started, after pre-incubation with test compounds (or control DMSO) for 15 min. at 37 °C, with addition of Ca-ionophore A23187 (2.5 µM) to the fresh 5 x 10^6 neutrophils or monocytes suspended in 1 ml of PGC buffer (phosphate buffered saline (PBS) solution containing 1 mg ml^-1 glucose and 1mM CaCl2, pH 7.4). After the incubation for 10 min. at 37 °C, the reaction is ended with addition of 1 ml of methanol, and 30 µL 1 N HCl, 200 ng prostaglandin B1 and 500 µL PBS are added to the mixture. In cell-free assays (isolated 5-LO and cell homogenates), human recombinant 5-LO protein or 40,000g supernatant is added to 1 ml of 5-LO reaction mixture (PBS, pH 7.4, 1 mM EDTA, 1 mM ATP), and then incubated with test compounds (or control DMSO) for 10 min. at 4°C, heated to 37 °C and 2 mM CaCl2 as well as AA at certain concentrations are added. The reaction is ended as described for the cell-based assays. Resulting 5-LO mediated products are extracted and analysed by the known method of high pressure liquid chromatography (HPLC) (Pergola, C. Proc Natl. Acad. Sci. U.S.A. 2008, 105, 19881). 5-LO mediated product formation (LTB4 and all trans isomers, and 5 (S)-hydro(pero)xy-6-trans-8, 11, 14-cis-eicosatetraenoic acid, 5-H(p)ETE) is expressed as ng per 10^6 cell. Cysteinyl-LTs have not been analyzed because that the amount of C4, D4 and E4 and LTB4 oxidation products are below the detection limit.
Compounds were tested in intact human neutrophils stimulated with 2.5 µM A23187 under cell based conditions and on purified 5-LO under cell free conditions. ^aData are given as remaining activity as a percentage of control (100%) at 10 µM or 1 µM inhibitor concentrations (means ± SE, n = 3-6).
9hj was added 15 min before addition of 2 mM Ca^2+ plus 3 µM, 10 µM and 30 µM AA. 100% controls correspond to 200.35 ng mL^-1 for 3 µM AA, 514.36 ng mL^-1 for 10 µM AA and 537.73 ng mL^-1 for 30 µM AA.

The subject of data set [2] is 5-LO mediated product formation. Put plainly: 5-LO mediated product formation in intact monocytes stimulated with A23187. It is filed as cell-based. The note with it: Homo sapiens, Monocyte; A23187 (2.5 µM), absence of exogenous AA (Figure 3). As for the experimental part:
as §1, with “In cell-free assays (isolated 5-LO and cell homogenates), human recombinant 5-LO protein or 40,000g supernatant is added to 1 ml of 5-LO reaction mixture (PBS, pH 7.4, 1 mM EDTA, 1 mM ATP), and then incubated with test compounds (or control DMSO) for 10 min. at 4°C, heated to 37 °C and 2 mM CaCl2 as well as AA at certain concentrations are added. The reaction is ended as described for the cell-based assays.” left out, “limit. […]” for “limit.”

In data set [3] the test system is translocation of 5-LO. In words: 5-LO subcellular localization by immunofluorescence microscopy. It is filed as cell-based. The note with it: 0.1 and 1 µM; Ca-ionophore A23187 (2.5 µM; 3 min) (Figure 8).
The subject of data set [4] is PMNL. In words: Cytotoxicity to PMNL. The conditions noted are these: within 1 hour at 10 µM. It is filed as cell-based.
Data set [5] addresses T2, 12-LO (Homo sapiens, UniProt P18054).
T2 construct: 12-LO or 15-LO, up to 10 µM in A23187-stimulated neutrophils; endogenous in cells; host or cells: A23187-stimulated neutrophils
T2 sequence (P18054 1-663): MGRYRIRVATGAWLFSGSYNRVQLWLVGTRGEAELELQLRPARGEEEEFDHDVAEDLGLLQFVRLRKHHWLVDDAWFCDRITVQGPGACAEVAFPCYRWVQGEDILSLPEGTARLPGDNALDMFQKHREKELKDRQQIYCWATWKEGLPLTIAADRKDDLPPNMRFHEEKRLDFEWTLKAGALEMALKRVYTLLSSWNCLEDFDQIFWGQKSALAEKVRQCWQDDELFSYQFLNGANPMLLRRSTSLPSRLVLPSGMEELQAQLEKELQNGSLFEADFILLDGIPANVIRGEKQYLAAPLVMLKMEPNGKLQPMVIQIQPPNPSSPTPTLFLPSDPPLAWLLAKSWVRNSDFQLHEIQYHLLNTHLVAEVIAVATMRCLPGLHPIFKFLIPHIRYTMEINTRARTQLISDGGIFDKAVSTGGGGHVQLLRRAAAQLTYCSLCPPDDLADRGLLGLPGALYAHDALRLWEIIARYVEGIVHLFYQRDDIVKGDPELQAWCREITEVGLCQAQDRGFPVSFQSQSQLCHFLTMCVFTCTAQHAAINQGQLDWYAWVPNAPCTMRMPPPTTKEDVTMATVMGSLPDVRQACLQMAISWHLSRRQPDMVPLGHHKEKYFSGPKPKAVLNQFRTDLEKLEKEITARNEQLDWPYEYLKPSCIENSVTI
In words: 12-LO inhibition in A23187-stimulated neutrophils. The data set is classed as cell-based. The conditions noted are these: up to 10 µM in A23187-stimulated neutrophils.

With `O=C(O)c1noc(-c2ccc(OCc3ccc4ccccc4n3)cc2)c1-c1ccc(Cl)cc1` [Compound 9hj, 4-(4-Chlorophenyl)-5-(4-(quinolin-2-ylmethoxy)phenyl)isoxazole-3-carboxylic acid], the pIC50 is 5.70 in data set [1] (human recombinant 5-LO, at 3, 10 and 30 µM substrate AA (Figure 5), read-out: mean IC50 activity of isolated 5-LO); 8.30 in data set [2]. Besides, the IC50 in data set [1] (purified 5-LO under cell free conditions, mean ± SE, n = 3-4, read-out: Inhibition of purified 5-LO activity IC50 (µM) cell-free) is 8 µM and 8.01 µM. In addition, in data set [3], the “translocation of 5-LO from soluble subcellular compartment to nuclear membrane” value is on record as “inhibited translocation”. Besides, in data set [4], the “cytotoxicity to PMNL” value is “not cytotoxic”. In data set [5], the “inhibition of 12-LO” value is “did not inhibit”.
